Earlier results in patent US10448644B2, “Fungicide composition for natural fibers and natural fiber components” (Lisa Draexlmaier Gmbh, priority 2014, dated 2019).

Experiments:
[1] = according to the German Federal Institute for Health Protection and Veterinary Medicine
[2] = animal experiments

Q: With `c1ccc2[nH]c(-c3cscn3)nc2c1` [thiabendazole] as the compound, how does the toxicity [1] read?
A: Its toxicity is “low”.

Q: What about the carcinogenic effect [2] of the same compound?
A: The carcinogenic effect was “found to have a carcinogenic effect”.
